In patent US11040954B1, “CXCR3 receptor agonists” (RECEPTOS LLC, priority 2016, dated 2021):

Assays:
[1] = Mouse pharmacokinetics after oral gavage, plasma drug concentration by LC-MS/MS (C57BL/6); format: in vivo, C57bl/6 mice; conditions: male mice; for Cmax / AUC(0-t): mouse, plasma; for AUC(0-t): read-out: AUC0-24
Method: (§1) Compounds were formulated in 5% DMSO/5% Tween20 in H2O, sonicated, vortexed, and put on stir plate overnight at a dose volume of 10 mL/kg. Balb/C (Jackson laboratories) or C57bl/6 (Taconic Biosciences) mice (8-9 weeks old) were acclimated to the colony for 3 days prior to dosing. Water and food were provided ab libitum. Compounds were administered by oral gavage. Groups of six animals received 3 to 4 bleeds per day with one terminal bleed. The time points were 30 min, 1 h, 2 h, 4 h, 6 h, 8 h, 24 h. Plasma was collected via centrifugation and analyzed for drug concentrations.
(§2) Preparation of Study Samples and Standards for Analysis by LC-MS/MS
(§3) 50 μl of plasma was aliquoted into a 96 well deep-well polypropylene plate (2 mL) to which 5 μL of DMSO was added. For standards, 5 μl of test compound in DMSO at […] the standard concentration was added to 50 μl of blank matrix in a 96 well deep-well polypropylene plate. For example, for a 300 nM standard, the 10× DMSO concentration was 3 μM. Study samples that require dilution are diluted with the appropriate blank matrix. For example, for a 10× dilution, 5 μL of study sample is added to 45 μl of blank matrix. Protein was precipitated from study samples and standards with the addition of 150 μl of acetonitrile. After a clean plate map was placed firmly over the top of the 96-well plate, a bench top shaker was used for 1 min to ensure complete precipitation of protein. The precipitated protein was pelleted by centrifuging for 3,000 rpm for 10 min at 20° C. and then the clear supernatant was transferred to a clean 96-well plate and spun again under the same conditions in order to pellet any solid material that may have been transferred.
(§4) Analysis of Study Samples and Standards with LCMS with MRM Detection
(§5) An Agilent 1200 HPLC with binary pump and a Leap CTC with fast wash autosampler were used to introduce samples to the mass spectrometer.
(§6) The column used was a Phenomenex Luna C8 30×2 mm 5 μm with a security guard. Mass detection was performed by an Applied Biosystems 4000 Qtrap in MRM mode and ionization was achieved by positive electrospray with a source temperature of 500° C. The ion transitions, […] potential and collision energies were dependent on the specific analyte.
(§7) Prepared samples were usually analyzed in reverse chronological order with bracketing standard curves. Typically at least 6 standards were used for quantification with a percent accuracy of +/−15% for all standards except at the LLOQ where a percent accuracy of +/−20% was allowed. The concentration time profile was fit using a one compartment model for the applicable mode of dosing using Phoenix WinNonLin 6.4.

[2] = biological target: T1, CXCR3 (Homo sapiens, UniProt P49682); experiment: CXCR3 cAMP agonist assay (cAMP Hunter CHOK1 CXCR3 Gi cell line, forskolin-stimulated, HitHunter cAMP detection); format: cell-based; conditions: cAMP Hunter CHOK1 CXCR3 Gi cells, 20 μM forskolin, 30 minutes; read-out: Activity (CXCR3 cAMP agonist assay compound EC50)
T1 construct: host or cells: CHO-K1 (cAMP Hunter CHOK1 CXCR3 Gi cell line)
T1 sequence (P49682 1-368): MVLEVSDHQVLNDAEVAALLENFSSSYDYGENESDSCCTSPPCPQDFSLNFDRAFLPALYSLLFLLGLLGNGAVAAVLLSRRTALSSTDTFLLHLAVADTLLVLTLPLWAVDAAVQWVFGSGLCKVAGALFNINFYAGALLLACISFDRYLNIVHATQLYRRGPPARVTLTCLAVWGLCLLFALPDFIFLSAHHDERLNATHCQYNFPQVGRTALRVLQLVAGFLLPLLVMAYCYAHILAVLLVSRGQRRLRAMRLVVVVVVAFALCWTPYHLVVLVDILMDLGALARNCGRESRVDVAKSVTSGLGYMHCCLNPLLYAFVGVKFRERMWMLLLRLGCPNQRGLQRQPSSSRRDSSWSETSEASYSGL
In short: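 Agonist activity was measured as suppression of forskolin (20 μM)-induced cAMP, read by luminescent enzyme-fragment complementation with a cAMP standard curve and CXCL11 defining full efficacy. Assay used 50,000 CXCR3 Gi CHOK1 cells/well in pH 7.4 HEPES-buffered HBSS with 0.1% BSA, compound 0-10 μM over 12 points, 30 min incubation.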

[3] = Mouse pharmacokinetics after oral gavage, plasma drug concentration by LC-MS/MS (BALB/c); format: in vivo; conditions: 10 mg/kg, male mice; for Cmax / AUC(0-t): mouse, plasma; for AUC(0-t): read-out: AUC0-24
Method: as §1, §2, §3, §4, §5, §6, §7

Structure (SMILES)	apparent oral clearance (CL/F) ([1]; C57BL/6, 10 mg/kg)	Cmax ([1]; C57BL/6, 10 mg/kg) [nM]	AUC(0-t) ([1]; C57BL/6, 10 mg/kg) [µM·h]	EC50 [2] [nM]	apparent oral clearance (CL/F) [3]	Cmax [3] [nM]	AUC(0-t) [3] [µM·h]	apparent oral clearance (CL/F) ([1]; C57BL/6, 60 mg/kg) [mL/min/kg]	Cmax ([1]; C57BL/6, 60 mg/kg) [nM]	AUC(0-t) ([1]; C57BL/6, 60 mg/kg) [µM·h]	AUC0-24 [3]	AUC0-24 ([1]; C57BL/6, 10 mg/kg)
NCC[C@H](NC(=O)[C@@H]1Cc2ccccc2CN1C(=O)CCC(=O)c1ccccc1)C(=O)Nc1ccc(Cl)c(Cl)c1F [Compound 2-24]	38 mL/min/kg	1000	7	< 50	23 mL/min/kg	3300	12.3	58	3000	29		
NCCCC[C@H](NC(=O)[C@@H]1Cc2ccccc2CN1C(=O)CCC(=O)c1ccccc1)C(=O)NCC(c1ccccc1)c1ccccc1 [B]	9000 mL/min/kg	30	0.029		BQL	7					BLQ	
Cc1cc(NC(=O)[C@H](CCN)NC(=O)[C@@H]2Cc3ccccc3CN2C(=O)CCC(=O)c2ccccc2)c(Cl)cc1Cl [Compound 2-22]	19 mL/min/kg	2900	15.1	< 50	10 mL/min/kg	4200	27					
N=C(N)NCCC[C@H](NC(=O)[C@@H]1Cc2ccccc2CN1C(=O)CCC(=O)c1ccccc1)C(=O)NCC1CCCCC1 [A]	BQL	2			BQL	4					BLQ	BQL
Cc1cc(Cl)c(Cl)cc1NC(=O)[C@H](CCN)NC(=O)[C@@H]1Cc2ccccc2CN1C(=O)CCC(=O)c1ccccc1 [Compound 2-21]				< 50	65 mL/min/kg	900	4.3					
Cc1c(NC(=O)[C@H](CCCCN)NC(=O)[C@@H]2Cc3ccccc3CN2C(=O)CCC(=O)c2ccccc2)ccc(Cl)c1Cl [Compound 1-25]				< 50	782 mL/min/kg	70	0.34					

Other lines, results leading:

apparent oral clearance (CL/F) ([1]; C57BL/6, 10 mg/kg)	Cmax ([1]; C57BL/6, 10 mg/kg) [nM]	AUC(0-t) ([1]; C57BL/6, 10 mg/kg) [µM·h]	EC50 [2] [nM]	apparent oral clearance (CL/F) [3]	Cmax [3] [nM]	AUC(0-t) [3] [µM·h]	apparent oral clearance (CL/F) ([1]; C57BL/6, 60 mg/kg) [mL/min/kg]	Cmax ([1]; C57BL/6, 60 mg/kg) [nM]	AUC(0-t) ([1]; C57BL/6, 60 mg/kg) [µM·h]	AUC0-24 [3]	AUC0-24 ([1]; C57BL/6, 10 mg/kg)	Structure (SMILES)
2346 mL/min/kg	70	0.11	< 50	158 mL/min/kg	1200	1.7						Cc1cc(NC(=O)[C@H](CCCCNC(C)C)NC(=O)[C@@H]2Cc3ccccc3CN2C(=O)CCC(=O)c2ccccc2)ccc1Cl [Compound 4-6]
176 mL/min/kg	900	1.7	< 50		3500		266	2700	6.7			Cc1cc(NC(=O)[C@H](CCN)NC(=O)[C@@H]2Cc3ccccc3CN2C(=O)CCC(=O)c2ccccc2)ccc1Cl [Compound 2-2]
246 mL/min/kg	330	1.2	< 50	56 mL/min/kg	800	4.9						Cc1cc(NC(=O)[C@H](CCNC(C)C)NC(=O)[C@@H]2Cc3ccccc3CN2C(=O)CCC(=O)c2ccccc2)ccc1Cl [Compound 8-3]
			50 to 250	66 mL/min/kg	1800	4.3						NCC[C@H](NC(=O)[C@@H]1Cc2ccccc2CN1C(=O)CCC(=O)c1ccccc1)C(=O)Nc1ccc(Cl)c(Cl)c1 [Compound 2-1, (S)—N—((S)-4-amino-1-((3,4-dichlorophenyl)amino)-1-oxobutan-2-yl)-2-(4-oxo-4-phenylbutanoyl)-1,2,3,4-tetrahydroisoquinoline-3-carboxamide]
			< 50	47 mL/min/kg	2900	6.2						Cc1cc(NC(=O)[C@H](CCN)NC(=O)[C@@H]2Cc3ccccc3CN2C(=O)CCC(=O)c2ccccc2)c(F)cc1Cl [Compound 2-18]
